# Assay results published in patent publication US9452225B2, “GLP-1 prodrugs” (Novo Nordisk A/S, priority 2012, dated 2016).
# Like-named read-outs stand apart in the source and are kept apart here. Numbered stars: 1 amine (or outer) side, 2 acyl side, 3 side chain; on linkers, the order of the positions; unused ones are H or OH. Side chains are listed from the residue outwards. Peptide text beside a SMILES is read from it. * marks the point of attachment. Decanoyl(10-(4-HOOC-PhO)) = O=C(O)c1ccc(OCCCCCCCCCC(=O)*)cc1; Lactoyl(3-(imidazol-4-yl)) = O=C([C@@H](O)Cc1c[nH]cn1)*; γGlu = O=C(O)[C@H](CCC(=O)[*:2])N[*:1]; AEEA = NCCOCCOCC(=O)O
# What was measured:
# human GLP-1 receptor = biological target: T1, human GLP-1 receptor (Homo sapiens, UniProt P43220); assay: In vitro potency, AlphaScreen cAMP assay on membranes; type: biochemical; settings: cAMP formation, membranes of BHK467-12A cells
# T1 construct: expressed in transfected cells; host or cells: BHK cells, clone FCW467-12A (parent line BHKTS13), membranes
# Description: The purpose of this example is to test the activity, or potency, in vitro of, for example, the GLP-1 parent drugs of the prodrugs of the invention.
# Purified plasma membranes from a stable transfected cell line, BHK467-12A (tk-ts13), expressing the human GLP-1 receptor were stimulated with the GLP-1 drug in question, and the potency of cAMP production was measured using the AlphaScreen™ cAMP Assay Kit from Perkin Elmer Life Sciences. The basic principle of The AlphaScreen Assay is a competition between endogenous cAMP and exogenously added biotin-cAMP. The capture of cAMP is achieved by using a specific antibody conjugated to acceptor beads.
# A stable transfected cell line and a high expressing clone were selected for screening. The cells were grown at 5% CO2 in DMEM, 10% FCS, 1% Pen/Strep (Penicillin/Streptomycin) and preferably 0.5 (alternatively 1.0 mg/ml) of the selection marker G418.
# Cells at approximate 80% confluence were washed twice with PBS and harvested with Versene (aqueous solution of the tetrasodium salt of ethylenediaminetetraacetic acid), centrifuged 5 min at 1000 rpm and the supernatant removed. The additional steps were all made on ice. The cell pellet was homogenised by the Ultrathurax for 20-30 s in 10 ml of Buffer 1 (20 mM Na-HEPES, 10 mM EDTA, pH=7.4), centrifuged 15 min at 20,000 rpm and the pellet resuspended in 10 ml of Buffer 2 (20 mM Na-HEPES, 0.1 mM EDTA, pH=7.4). The suspension was homogenised for 20-30 s and centrifuged 15 min at 20,000 rpm. Suspension in Buffer 2, homogenisation and centrifugation was repeated once and the membranes were resuspended in Buffer 2. The protein concentration was determined and the membranes stored at −80° C. until use.
# The assay was performed in flat-bottom 96-well plates (Costar cat. no: 3693). The final volume per well was 50 μl.
# AlphaScreen cAMP Assay Kit from Perkin Elmer Life Sciences (cat. No: 6760625M); containing Anti-cAMP Acceptor beads (10 U/μl), Streptavidin Donor beads (10 U/μl) and Biotinylated-cAMP (133 U/μl). […]
# [1] = biological target: T2, Dipeptidyl peptidase-4 (DPP-IV) (Homo sapiens, UniProt P27487); assay: Resistance to DPP-IV degradation; type: in vitro ADME; settings: for half-life: recombinant dipeptidyl peptidase-4 (DPP-IV), pH 7.4, incubation with DPP-IV, 37° C.; for In (concentration) of parent GLP-1 peptide drug: DPP-IV incubation 37° C.
# T2 construct: purchased R&D Systems 1180-SE
# Description: The purpose of this experiment is to determine the degradation by Dipeptidyl peptidase-4 (DPP-IV) of the parent drugs of the prodrugs of the invention.
# The stability of the parent GLP-1 drug of Example B2.1 was tested as described below.
# HEPES Buffer (50 mM HEPES Buffer with 0.005% Tween20, pH 7.4)
# 10 ml 1 M HEPES+100 μl 10% Tween20 adjusted to pH 7.4 and diluted with MilliQ water ad 200 mL
# 1.0 mM in HEPES buffer 0.1% BSA (Sigma cat. no. A9418)
# 1.0 mM in hepes buffer pH 7.4
# DPP-IV was Recombinant Dipeptidyl Peptidase, R&D Systems, cat no. 1180-SE
# 50 μl of DPP-IV (0.2 mg/mL), 25 mM MES, 0.7 M NaCl, pH 5.0
# Add 200 μl 25 mM TRIS pH 8.0 to Stock vial (DPP-IV concentration 40 μg/mL). Just before use: 210 μl (40 μg/ml) is added 210 μl 50 mM HEPES (DPP-IV concentration 20 μg/mL)
# Minimum 30 min, 37° C. with 600 μl 0.1% OVAlbumin. Then left overnight at 4° C. and washed times with 50 mM HEPES.
# Minimum 150 min with HEPES buffer at 37° C.
# The reactions were terminated by moving 25 μl of the sample into 150 μl cooled 1% TFA in EtOH. Samples were collected in a v-shaped 96-well plate (polypropylene, Costar 3957), (Cat no. cci-3957)). Samples were sealed and kept on ice until analyses.
# Samples were diluted 5 times in 50% acetonitrile (1% formic acid) (20 μL+80 μL) and analysed with UPLC-MS.
# The amounts of parent GLP-1 drug and DPP-IV cleaved drug were measured from the total ion counts and T½ was determined from a linear fit to the curve of ln (% parent GLP-1 drug) (Y) as a function of time (t), as follows: Y(t)=÷αt+k Math 3 T½=ln 2/α Math 4 T½ (÷BSA): 3466 min T½ (+0.001% BSA): 2311 min
# T2 sequence (P27487 29-766 limits assumed): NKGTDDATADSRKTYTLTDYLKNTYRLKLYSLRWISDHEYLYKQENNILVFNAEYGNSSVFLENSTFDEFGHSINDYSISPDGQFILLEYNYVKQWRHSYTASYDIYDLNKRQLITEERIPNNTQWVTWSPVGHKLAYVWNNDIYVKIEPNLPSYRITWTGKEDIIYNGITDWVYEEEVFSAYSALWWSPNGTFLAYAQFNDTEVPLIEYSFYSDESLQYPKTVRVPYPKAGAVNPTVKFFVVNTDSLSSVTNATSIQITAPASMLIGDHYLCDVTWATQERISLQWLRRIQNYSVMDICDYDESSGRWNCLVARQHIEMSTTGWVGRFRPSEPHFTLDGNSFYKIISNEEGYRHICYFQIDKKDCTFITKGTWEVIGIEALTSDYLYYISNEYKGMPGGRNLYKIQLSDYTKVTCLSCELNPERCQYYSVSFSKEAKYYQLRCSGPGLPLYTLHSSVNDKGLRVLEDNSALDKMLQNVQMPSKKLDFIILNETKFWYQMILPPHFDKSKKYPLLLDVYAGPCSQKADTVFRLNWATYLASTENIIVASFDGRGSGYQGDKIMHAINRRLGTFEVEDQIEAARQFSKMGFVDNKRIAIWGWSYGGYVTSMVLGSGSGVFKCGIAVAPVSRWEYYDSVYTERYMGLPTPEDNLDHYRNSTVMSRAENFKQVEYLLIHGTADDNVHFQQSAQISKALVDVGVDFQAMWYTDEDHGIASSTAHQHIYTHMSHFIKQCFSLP
# T1 sequence (P43220 24-463): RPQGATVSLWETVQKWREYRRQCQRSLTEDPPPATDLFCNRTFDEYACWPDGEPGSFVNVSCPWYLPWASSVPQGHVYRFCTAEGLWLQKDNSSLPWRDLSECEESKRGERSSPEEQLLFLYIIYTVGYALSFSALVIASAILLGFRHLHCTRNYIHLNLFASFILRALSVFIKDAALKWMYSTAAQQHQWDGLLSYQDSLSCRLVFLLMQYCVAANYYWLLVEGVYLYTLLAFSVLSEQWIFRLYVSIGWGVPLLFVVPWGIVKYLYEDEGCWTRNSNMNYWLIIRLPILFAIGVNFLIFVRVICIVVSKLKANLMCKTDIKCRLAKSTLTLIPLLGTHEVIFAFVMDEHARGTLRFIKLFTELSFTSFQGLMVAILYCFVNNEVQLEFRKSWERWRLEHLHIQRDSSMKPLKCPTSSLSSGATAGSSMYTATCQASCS
smiles,measurement,setting,value
CC[C@H](C)[C@H](NC(=O)[C@H](Cc1ccccc1)NC(=O)[C@H](CCC(=O)O)NC(=O)[C@H](CCCNC(=N)N)NC(=O)[C@@H](NC(=O)[C@H](C)NC(=O)[C@H](CCC(N)=O)NC(=O)[C@H](CCC(=O)O)NC(=O)[C@H](CCC(=O)O)NC(=O)[C@H](CC(C)C)NC(=O)[C@H](Cc1ccc(O)cc1)NC(=O)[C@H](CCCCNC(=O)COCCOCCNC(=O)COCCOCCNC(=O)CC[C@H](NC(=O)CCCCCCCCCOc1ccc(C(=O)O)cc1)C(=O)O)NC(=O)[C@H](CO)NC(=O)[C@@H](NC(=O)[C@H](CC(=O)O)NC(=O)[C@H](CO)NC(=O)[C@@H](NC(=O)[C@H](Cc1ccccc1)NC(=O)[C@@H](NC(=O)CNC(=O)[C@H](CCC(=O)O)NC(=O)[C@H](C)NC(=O)[C@@H](O)Cc1c[nH]cn1)[C@@H](C)O)[C@@H](C)O)C(C)C)C(C)C)C(=O)N[C@@H](C)C(=O)N[C@@H](CCCCNC(=O)COCCOCCNC(=O)COCCOCCNC(=O)CC[C@H](NC(=O)CCCCCCCCCOc1ccc(C(=O)O)cc1)C(=O)O)C(=O)N[C@@H](CC(C)C)C(=O)N[C@H](C(=O)N[C@@H](CCCNC(=N)N)C(=O)NCC(=O)N[C@@H](CCCNC(=N)N)C(=O)NCC(=O)O)C(C)C [Example B2.1] ({Lactoyl(3-(imidazol-4-yl))}-AEGTFTSDVSK([AEEA-AEEA-γGlu-Decanoyl(10-(4-HOOC-PhO))])YLEEQAVREFIAK([AEEA-AEEA-γGlu-Decanoyl(10-(4-HOOC-PhO))])LVRGRG-OH),EC50,human GLP-1 receptor,100 pM
same,half-life,"[1]; +0.001% BSA, read-out: T½ (+0.001% BSA)",38.5 h
same,half-life,"[1]; without BSA, read-out: T½ (÷BSA)",57.8 h
same,In (concentration) of parent GLP-1 peptide drug,"[1]; with BSA, time 1.0 minutes",4.61
same,In (concentration) of parent GLP-1 peptide drug,"[1]; with BSA, time 32 minutes",4.61
same,In (concentration) of parent GLP-1 peptide drug,"[1]; with BSA, time 60 minutes",4.58
same,In (concentration) of parent GLP-1 peptide drug,"[1]; with BSA, time 120 minutes",4.40
same,In (concentration) of parent GLP-1 peptide drug,"[1]; with BSA, time 183 minutes",4.58
same,In (concentration) of parent GLP-1 peptide drug,"[1]; with BSA, time 1440 minutes",4.47
same,In (concentration) of parent GLP-1 peptide drug,"[1]; without BSA, time 1.0 minutes",4.61
same,In (concentration) of parent GLP-1 peptide drug,"[1]; without BSA, time 32 minutes",4.59
same,In (concentration) of parent GLP-1 peptide drug,"[1]; without BSA, time 60 minutes",4.63
same,In (concentration) of parent GLP-1 peptide drug,"[1]; without BSA, time 120 minutes",4.50
same,In (concentration) of parent GLP-1 peptide drug,"[1]; without BSA, time 183 minutes",4.64
same,In (concentration) of parent GLP-1 peptide drug,"[1]; without BSA, time 1440 minutes",4.45
